Assay results reported in patent publication US20170368134A1, “PROTEASOME INHIBITORS FOR TREATING A DISORDER RELATED TO AN ACCUMULATION OF NON-DEGRADED ABNORMAL PROTEIN OR A CANCER” (UNIVERSITÉ D'AIX-MARSEILLE, priority 2015, published 2017).
Square brackets hold non-standard residues; d marks the D form. Peptide text beside a SMILES is read from it. * marks the point of attachment. Nva = CCC[C@H](N)C(=O)O; Cbz = O=C(OCc1ccccc1)*; CH2F = FC*

Assays:
progerin = experiment: Western blot of progerin levels in HGPS fibroblasts; assay type: cell-based, human; conditions: HGPS fibroblasts; for progerin clearance / suppression of progerin accumulation compared with MG132: 10 μM, 48 h (FIG. 1C); for effect on MG132-induced progerin clearance (co-treatment with MG132): 48 h, added together with MG132; for progerin expression levels, inhibitor alone: alone at high doses
Method: HGPS fibroblasts (AG01972: person, AG11498: person) were obtained from the Coriell Cell Repository. Cells were cultured in Dulbecco's modified Eagle's medium (Life Technologies) supplemented with 15% fetal bovine serum (Life Technologies), 2 mM L-glutamine (Life Technologies) and 1× penicillin-streptomycin (Life Technologies) at 37° C. in a humidified atmosphere containing 5% CO2. […]
(§1) Total fibroblast proteins were extracted in 200 μL of NP40 Cell Lysis buffer (Invitrogen, Carlsbad, Calif.) containing Protease and Phosphatase Inhibitor Cocktail (Thermo Scientific). Alternatively, cells were lysed with urea (8 M urea, 5 mM dithiothreitol, 150 mM NaCl, 50 mM Tris-Cl pH 7.5, protease and phosphatase Inhibitor Cocktail (Thermo Scientific)). Cells were sonicated twice (30 sec each), incubated at 4° C. for 30 minutes and then centrifuged at 10,000 g for 10 minutes. Protein concentration was evaluated with the bicinchoninic acid technique (Pierce BCA Protein Assay Kit), absorbance at 562 nm is measured using nanodrop 1000 (Thermo Fisher Scientific Inc.) Equal amounts of proteins (40 μg) were loaded onto 10% Tis-Glycine gel (Criterion™ XT precast gel) using XT Tricine running Buffer (Biorad, USA). After electrophoresis, gels were electro transferred onto nitrocellulose membranes or Immobilon-FL polyvinylidene fluoride membranes (Millipore), blocked in Odyssey Blocking Buffer diluted 1:1 in PBS for 1 hour at room temperature, and incubated overnight at 4° C. or 2 hours at room temperature with various primary antibodies. Blots were washed with TBS-T buffer [20 mM tris (pH 7.4), 150 mM NaCl, and 0.05% Tween 20] and incubated with 1:10,000 IR-Dye 800-conjugated secondary donkey anti-goat or IR-Dye 700-conjugated secondary anti-mouse antibodies (LI-COR Biosciences) in Odyssey blocking buffer (LI-COR Biosciences). For IR-Dye 800 and IR-Dye 700 detection, an Odyssey Infrared Imaging System (LI-COR Biosciences) was used. GAPDH, α-tubulin or β-actin were used as a total cellular protein loading control.

proteasome = biological target: T1, proteasome (Homo sapiens, UniProt P28072+P28074+Q99436); experiment: Proteasome-Glo cell-based proteasome activities (chymotrypsin-like, trypsin-like, caspase-like) in HGPS cells; conditions: HGPS cells treated with the autophagy inhibitor
T1 construct: The proteasome activities were determined in HGPS and control cells; endogenous in cells; host or cells: HGPS fibroblasts (AG01972, AG11498, 5968)
T1 sequence (P28074 60-263): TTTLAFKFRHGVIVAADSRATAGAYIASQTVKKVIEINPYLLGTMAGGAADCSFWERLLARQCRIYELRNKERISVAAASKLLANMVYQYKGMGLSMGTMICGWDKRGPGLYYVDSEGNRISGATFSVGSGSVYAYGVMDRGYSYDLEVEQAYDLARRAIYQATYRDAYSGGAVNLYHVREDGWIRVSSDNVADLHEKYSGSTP
T1 sequence (Q99436 44-277): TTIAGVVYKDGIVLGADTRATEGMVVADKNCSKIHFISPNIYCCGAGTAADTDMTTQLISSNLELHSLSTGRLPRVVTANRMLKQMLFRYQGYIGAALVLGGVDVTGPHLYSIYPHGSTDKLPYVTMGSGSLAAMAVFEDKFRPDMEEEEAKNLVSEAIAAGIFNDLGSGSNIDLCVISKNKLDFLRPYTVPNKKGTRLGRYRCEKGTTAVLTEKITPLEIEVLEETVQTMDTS
T1 sequence (P28072 1-239): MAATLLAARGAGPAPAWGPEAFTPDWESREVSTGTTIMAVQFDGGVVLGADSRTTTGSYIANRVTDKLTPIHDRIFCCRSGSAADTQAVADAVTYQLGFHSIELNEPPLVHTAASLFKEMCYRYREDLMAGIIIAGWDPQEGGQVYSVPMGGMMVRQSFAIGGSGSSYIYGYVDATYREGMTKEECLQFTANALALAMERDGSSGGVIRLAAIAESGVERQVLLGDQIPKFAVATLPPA
Method: The proteasome activities were determined in HGPS and control cells by using the Proteasome-Glo™ 3-Substrate Cell-Based Assay System (Promega) that allows to measure the chymotrypsin-like, trypsin-like or caspase-like protease activity associated with the proteasome complex in cultured cells. The Proteasome-Glo™ Cell-Based Reagents each contain a specific luminogenic proteasome substrate. These peptide substrates are Suc-LLVY amino luciferin (Succinyl-leucine-leucine-valine-tyro sine-amino luciferin), Z-LRR-amino luciferin (Z-leucine-arginine-arginine-aminoluciferin) and Z-nLPnLD-amino luciferin (Z-norleucine-proline-norleucine-aspartate-amino luciferin) for the chymotrypsin-like, trypsin-like and caspase-like activities, respectively. Cells (10,000 cells/well) were cultured in 100 μl/well in a 96-well plate at 37° C., 5% CO2. The plate was allowed to equilibrate to 22° C. before 100 μl/well of substrate and luciferin detection reagent was added. The contents of the wells were mixed at 700 rpm using a plate shaker for 2 minutes and incubated at room temperature for 10 minutes. Following cleavage by the proteasome, the substrate for luciferase (amino luciferin) is released, allowing the luciferase reaction to proceed and produce light. Luminescence is determined as relative light units (RLUs) using a GloMax-Multi Detection System: Luminometer (Promega, USA).

SRSF-1 = experiment: Western blot of SRSF-1 in HGPS fibroblasts; assay type: cell-based, human; conditions: for SRSF-1 levels, autophagy inhibitor alone: HGPS fibroblasts, chloroquine 50 μM, bafilomycin A1 100 nM
Method: as §1

Compound	progerin clearance / suppression of progerin accumulation compared with MG132 (progerin)	effect on MG132-induced progerin clearance (co-treatment with MG132) (progerin)	further results
CC(C)C[C@H](NC(=O)[C@H](CCc1ccccc1)NC(=O)CN1CCOCC1)C(=O)N[C@@H](Cc1ccccc1)C(=O)N[C@@H](CC(C)C)C(=O)[C@@]1(C)CO1 [carfilzomib]	do not induce progerin clearance	–	–
CO/C1=C\C(C)=C\[C@@H](C)[C@@H](O)[C@@H](C)C/C(C)=C/C=C/[C@H](OC)[C@@H]([C@@H](C)[C@@H](O)[C@H](C)[C@@]2(O)C[C@@H](O)[C@H](C)[C@@H](C(C)C)O2)OC1=O [bafilomycin A1]	–	partially inhibited the effect of MG132	progerin expression levels, inhibitor alone (progerin): reduced expression levels of progerin; three proteasome activities (proteasome): not modified; SRSF-1 levels, autophagy inhibitor alone (SRSF-1): decrease SRSF-1 levels
CCC(=C/[C@H](C)C/C=C/C(C)=C/[C@@H](C)C(=O)[C@@H](C)[C@H](O)[C@@H](C)C/C(C)=C/C(=O)O)/C=C/[C@@H]1OC(=O)C=C[C@@H]1C [leptomycin B]	–	does not inhibit MG132 induced progerin clearance	–
CC(C)C[C@H](NC(=O)[C@H](CC(C)C)NC(=O)[C@H](CC(C)C)NC(=O)OCc1ccccc1)B(O)O [MG262, Z-Leu-Leu-Leu-B(OH)2]	less effective	–	–
CC(C)C[C@H](NC(=O)[C@H](Cc1ccccc1)NC(=O)c1cnccn1)B(O)O [bortezomib]	do not induce progerin clearance	–	–
CCN(CC)CCCC(C)Nc1ccnc2cc(Cl)ccc12 (stereo not drawn) [chloroquine]	–	–	progerin expression levels, inhibitor alone (progerin): reduced expression levels of progerin; three proteasome activities (proteasome): not modified; SRSF-1 levels, autophagy inhibitor alone (SRSF-1): decrease SRSF-1 levels
COC(=O)C[C@H](NC(=O)[C@H](C)NC(=O)[C@@H](NC(=O)OCc1ccccc1)C(C)C)C(=O)CF [pan-caspase inhibitor, Z-VAD-FMK] (Cbz-Val-Ala-Asp(OMe)-CH2F)	–	increase of progerin that slightly reaches the control levels	SRSF-1 protein expression, added during MG132 treatment (SRSF-1; HGPS cells, co-treatment with MG132): rescue of SRSF-1 protein expression
CC[C@H](C)[C@H](NC(=O)[C@H](CCC(=O)OC)NC(=O)[C@@H](NC(=O)OCc1ccccc1)C(C)C)C(=O)N[C@@H](CC(=O)OC)C(=O)CF [caspase-6 inhibitor, Z-VEID-FMK] (Cbz-VE(OMe)ID(OMe)-CH2F)	–	progerin level remained below the HGPS control	–
CCC[C@@H](C=O)NC(=O)[C@H](CC(C)C)NC(=O)[C@H](CC(C)C)NC(=O)OCc1ccccc1 [MG115, Z-Leu-Leu-Nva-H] (Cbz-Leu-Leu-[Nva]-aldehyde)	the same efficacy in suppressing progerin accumulation	–	–
